Our source for the IC50 values is ChEMBL document CHEMBL3875164, “Pyrazole-based potent inhibitors of GGT1: Synthesis, biological evaluation, and molecular docking studies” (Eur J Med Chem, 2016).

A word on the pIC50: it is the IC50 on a negative log10 scale, so that one unit is a factor of ten.

Experiment [1] in a line: Inhibition of recombinant FT (unknown origin) using FPP as substrate preincubated for 5 mins followed by protein addition measured over 20 mins by fluorescence assay. The arrangement: species or system Homo sapiens.
Experiment [2] is described as follows: Cytotoxicity against human MDA-MB-231 cells assessed as cell growth inhibition after 48 hrs by MTT assay method. To be noted: MDA-MB-231, 48 h. The format is functional, cell-based. In general terms: Tetrazolium dyes change colour on reduction, which living cells bring about.

pIC50: −log10 of the molar value.

As for `CSCCc1c(-c2cccnc2)nn(-c2ccc(Cl)c(Cl)c2)c1OCCCC(=O)N[C@@H](Cc1ccc(F)cc1)C(N)=O`, the figures for the pIC50 in experiment [1] and in experiment [2] were less than 4.00 and 5.12, respectively. In the case of `CSCCc1c(-c2cccnc2)nn(-c2ccc(Cl)c(Cl)c2)c1OCCCNC(=O)[C@H](Cc1ccc(F)cc1)NC(C)=O`, the pIC50 was less than 4.00 in experiment [1] and 4.88 in experiment [2]. As to `COc1ccc(C[C@H](NC(=O)CCCOc2c(CCSC)c(-c3cccnc3)nn2-c2ccc(Cl)c(Cl)c2)C(N)=O)cc1`, the negative-log IC50 (pIC50) is less than 4.00 in experiment [1] and 4.48 in experiment [2]. Take `CSCCc1c(-c2cccnc2)nn(-c2ccc(Cl)c(Cl)c2)c1OCCCNC(=O)[C@H](Cc1ccc(F)cc1)NS(C)(=O)=O`: the figures for the pIC50 in experiment [1] and in experiment [2] were less than 4.00 and less than 4.30, respectively.

As to `COc1ccc(C[C@H](NS(C)(=O)=O)C(=O)NCCCOc2c(CCSC)c(-c3cccnc3)nn2-c2ccc(Cl)c(Cl)c2)cc1`, the pIC50 in experiment [1] was less than 4.00; in experiment [2], less than 4.30. Taken in the same sequence, the figures for `CSCCc1c(-c2cccnc2)nn(-c2ccc(Cl)c(Cl)c2)c1OCCCC(=O)N[C@@H](Cc1ccncc1)C(N)=O` were less than 4.00 and less than 4.30. `CSCCc1c(-c2cccnc2)nn(-c2ccc(Cl)c(Cl)c2)c1OCCCNC(=O)[C@H](Cc1ccccc1)NS(C)(=O)=O`: the pIC50 was less than 4.00 in experiment [1] and less than 4.30 in experiment [2]. For `CSCCc1c(-c2cccnc2)nn(-c2ccc(Cl)c(Cl)c2)c1OCCCC(=O)N[C@@H](Cc1ccccc1)C(N)=O`, the pIC50 in experiment [2] was 4.64.

On to `CSCCc1c(-c2cccnc2)nn(-c2ccc(Cl)c(Cl)c2)c1OCCCNC(=O)[C@H](Cc1cccnc1)NS(C)(=O)=O`, for which the results for the pIC50 in experiment [1] and in experiment [2] were less than 4.00 and less than 4.30, respectively.

As to `COc1ccc(C[C@H](NC(=O)OC(C)(C)C)C(=O)NCCCOc2c(CCSC)c(-c3cccnc3)nn2-c2ccc(Cl)c(Cl)c2)cc1`, the values for the negative-log IC50 (pIC50) in experiment [1] and in experiment [2] were less than 4.00 and less than 4.30, respectively. `COc1ccc(C[C@H](NC(C)=O)C(=O)NCCCOc2c(CCSC)c(-c3cccnc3)nn2-c2ccc(Cl)c(Cl)c2)cc1`: the negative-log IC50 (pIC50) is less than 4.00 in experiment [1] and 4.83 in experiment [2]. In the case of `CSCCc1c(-c2cccnc2)nn(-c2ccc(Cl)c(Cl)c2)c1OCCCNC(=O)[C@H](Cc1ccncc1)NS(C)(=O)=O`, the pIC50 is less than 4.00 in experiment [1] and 4.58 in experiment [2]. Regarding `CSCCc1c(-c2cccnc2)nn(-c2ccc(Cl)c(Cl)c2)c1OCCCNC(=O)[C@H](Cc1ccccc1)NC(C)=O`, the pIC50 in experiment [1] was less than 4.00; in experiment [2] it was 4.81. Taken in the same sequence, the figures for `CSCCc1c(-c2cccnc2)nn(-c2ccc(Cl)c(Cl)c2)c1OCCCNC(=O)[C@H](Cc1ccncc1)NC(C)=O` were less than 4.00 and 4.46. Take `CSCCc1c(-c2cccnc2)nn(-c2ccc(Cl)c(Cl)c2)c1OCCCC(=O)N[C@@H](Cc1cccnc1)C(N)=O`: the results for the pIC50 in experiment [1] and in experiment [2] were less than 4.00 and 4.53, respectively.

For `CSCCc1c(-c2cccnc2)nn(-c2ccc(Cl)c(Cl)c2)c1OCCCNC(=O)[C@H](Cc1cccnc1)NC(C)=O`, the negative logarithm of the IC50 (pIC50) in experiment [1] was less than 4.00; in experiment [2] it was 4.28. On to `COC(=O)[C@H](CCSC)NC(=O)c1ccc(NC[C@@H](N)CS)cc1-c1ccccc1`, for which the pIC50 in experiment [1] was 5.96.
